# Data taken from PubChem BioAssay AID272 (DTP/NCI, 2004).
# Inconclusive results are not listed. Residues, ends and D or L forms follow the SMILES beside them. *: point of attachment. Trt = c1ccc(C(c2ccccc2)(c2ccccc2)*)cc1; Cbz = O=C(OCc1ccccc1)*; Bn = c1ccc(C*)cc1; βAla = NCCC(=O)O
# Tested on: Lewis lung carcinoma i.m., BDF1 mice, T/C %
# Test: NCI In Vivo Anticancer Drug Screen. Data for tumor model Lewis Lung Carcinoma (intramuscular) in B6D2F1 (BDF1) mice
# How it was run: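 Transplantable tumour model; readout survival or tumour size; value = treated (T) / vehicle control (C).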
# [1] = endpoint: median survival time, dose: 0.5 mg/kg/injection, schedule: Q01DX011 (ip), vehicle: saline with Tween-80, higher = longer survival
# [2] = endpoint: median survival time, dose: 1.0 mg/kg/injection, schedule: Q01DX011 (ip), vehicle: saline with Tween-80, higher = longer survival
# [3] = endpoint: median survival time, dose: 4.0 mg/kg/injection, schedule: Q01DX011 (ip), vehicle: saline with Tween-80, higher = longer survival
# [4] = endpoint: mean tumor weight (est.), dose: 12.5 mg/kg/injection, schedule: Q01DX011 (ip), vehicle: saline with Tween-80, higher = larger tumour
# [5] = endpoint: mean tumor weight (est.), dose: 25.0 mg/kg/injection, schedule: Q01DX011 (ip), vehicle: saline with Tween-80, higher = larger tumour
# [6] = endpoint: median survival time, dose: 12.5 mg/kg/injection, schedule: Q01DX011 (ip), vehicle: saline with Tween-80, higher = longer survival
# [7] = endpoint: median survival time, dose: 32.0 mg/kg/injection, schedule: Q01DX009 (ip), vehicle: Klucel (hydroxypropylcellulose) (HPC), higher = longer survival
# [8] = endpoint: median survival time, dose: 64.0 mg/kg/injection, schedule: Q01DX009 (ip), vehicle: Klucel (hydroxypropylcellulose) (HPC), higher = longer survival
# [9] = endpoint: mean tumor weight (est.), dose: 1.0 mg/kg/injection, schedule: Q01DX011 (ip), vehicle: saline with Tween-80, higher = larger tumour
# [10] = endpoint: mean tumor weight (est.), dose: 2.0 mg/kg/injection, schedule: Q01DX011 (ip), vehicle: saline with Tween-80, higher = larger tumour
# [11] = endpoint: median survival time, dose: 2.0 mg/kg/injection, schedule: Q01DX011 (ip), vehicle: saline with Tween-80, higher = longer survival
smiles,measurement,setting,value
CC(C)[C@](O)(C(=O)OCC1=CC[N+]2([O-])CC[C@@H](O)[C@@H]12)[C@H](C)O (stereo not given in full),T/C,"endpoint: mean tumor weight (est.), dose: 200.0 mg/kg/injection, schedule: Q01DX011 (ip), vehicle: saline, higher = larger tumour",76 % of control
same,T/C,"endpoint: mean tumor weight (est.), dose: 400.0 mg/kg/injection, schedule: Q01DX011 (ip), vehicle: saline, higher = larger tumour",78 % of control
same,T/C,"endpoint: mean tumor weight, dose: 50.0 mg/kg/injection, schedule: Q01DX011 (ip), vehicle: water, higher = larger tumour",78 % of control
same,T/C,"endpoint: mean tumor weight, dose: 100.0 mg/kg/injection, schedule: Q01DX011 (ip), vehicle: water, higher = larger tumour",44 % of control
same,T/C,"endpoint: mean tumor weight, dose: 200.0 mg/kg/injection, schedule: Q01DX011 (ip), vehicle: water, higher = larger tumour",56 % of control
same,T/C,"endpoint: mean tumor weight, dose: 400.0 mg/kg/injection, schedule: Q01DX011 (ip), vehicle: water, higher = larger tumour",47 % of control
same,T/C,"endpoint: median survival time, dose: 200.0 mg/kg/injection, schedule: Q01DX011 (ip), vehicle: saline, higher = longer survival",101 % of control
same,T/C,"endpoint: median survival time, dose: 400.0 mg/kg/injection, schedule: Q01DX011 (ip), vehicle: saline, higher = longer survival",101 % of control
C[C@H]1CN1C1=CC(=O)C(N2C[C@@H]2C)=CC1=O,T/C,[1],102 % of control
same,T/C,[2],113 % of control
same,T/C,[3],108 % of control
Clc1ccc2nc(CBr)cnc2c1,T/C,"endpoint: mean tumor weight (est.), dose: 6.25 mg/kg/injection, schedule: Q01DX011 (ip), vehicle: saline with Tween-80, higher = larger tumour",64 % of control
same,T/C,[4],77 % of control
same,T/C,[5],81 % of control
same,T/C,"endpoint: median survival time, dose: 6.25 mg/kg/injection, schedule: Q01DX011 (ip), vehicle: saline with Tween-80, higher = longer survival",105 % of control
same,T/C,[6],105 % of control
same,T/C,"endpoint: median survival time, dose: 25.0 mg/kg/injection, schedule: Q01DX011 (ip), vehicle: saline with Tween-80, higher = longer survival",103 % of control
O=C1NC(O)CCN1C1OC(CO)C(O)C1O (stereo not given),T/C,"endpoint: median survival time, dose: 25.0 mg/kg/injection, schedule: Q01DX011 (ip), vehicle: water, higher = longer survival",89 % of control
same,T/C,"endpoint: median survival time, dose: 50.0 mg/kg/injection, schedule: Q01DX011 (ip), vehicle: water, higher = longer survival",93 % of control
same,T/C,"endpoint: median survival time, dose: 400.0 mg/kg/injection, schedule: Q01DX011 (ip), vehicle: water, higher = longer survival",116 % of control
COC(=O)C(CSC(c1ccccc1)(c1ccccc1)c1ccccc1)NC(=O)C(CSCc1ccccc1)NC(=O)CCNC(=O)OCc1ccccc1 (stereo not given) ({Cbz-βAla}-Cys(Bn)-Cys(Trt)-OMe; configuration not given here),T/C,"endpoint: median survival time, dose: 4.0 mg/kg/injection, schedule: Q01DX009 (ip), vehicle: Klucel (hydroxypropylcellulose) (HPC), higher = longer survival",121 % of control
same,T/C,[7],171 % of control
same,T/C,[8],161 % of control
Cc1c(C(=O)O)nc(/C=C/C(=O)O)[nH]c1=O,T/C,"endpoint: median survival time, dose: 4.0 mg/kg/injection, schedule: Q01DX009 (ip), vehicle: water, higher = longer survival",105 % of control
same,T/C,"endpoint: median survival time, dose: 8.0 mg/kg/injection, schedule: Q01DX009 (ip), vehicle: water, higher = longer survival",108 % of control
same,T/C,"endpoint: median survival time, dose: 16.0 mg/kg/injection, schedule: Q01DX009 (ip), vehicle: water, higher = longer survival",108 % of control
CC1=C2C(=C[C@@](C)(CO)[C@@H]2O)C(=O)[C@](C)(O)C12CC2,T/C,"endpoint: mean tumor weight, dose: 0.1 mg/kg/injection, schedule: Q01DX011 (ip), vehicle: other, higher = larger tumour",89 % of control
same,T/C,"endpoint: mean tumor weight, dose: 0.2 mg/kg/injection, schedule: Q01DX011 (ip), vehicle: other, higher = larger tumour",65 % of control
same,T/C,"endpoint: mean tumor weight, dose: 0.4 mg/kg/injection, schedule: Q01DX011 (ip), vehicle: other, higher = larger tumour",58 % of control
O=[N+]([O-])c1cc(Cl)cc2c1nc(NCCO)c1ccccc12,T/C,[4],70 % of control
same,T/C,[5],43 % of control
same,T/C,[6],98 % of control
Cc1ccc2c(ccc(C)[n+]2C)c1,T/C,"endpoint: mean tumor weight (est.), dose: 37.5 mg/kg/injection, schedule: Q01DX011 (ip), vehicle: saline, higher = larger tumour",86 % of control
same,T/C,"endpoint: mean tumor weight (est.), dose: 75.0 mg/kg/injection, schedule: Q01DX011 (ip), vehicle: saline, higher = larger tumour",86 % of control
COc1cccc2c1C(=O)c1c(O)c3c(c(O)c1C2=O)C[C@@](O)(C(=O)COC(=O)Cc1cccc2ccccc12)C[C@@H]3OC1CC(N)C(O)C(C)O1 (stereo not given in full),T/C,"endpoint: median survival time, dose: 0.25 mg/kg/injection, schedule: Q01DX011 (ip), vehicle: other, higher = longer survival",124 % of control
same,T/C,"endpoint: median survival time, dose: 0.5 mg/kg/injection, schedule: Q01DX011 (ip), vehicle: other, higher = longer survival",108 % of control
same,T/C,"endpoint: median survival time, dose: 1.0 mg/kg/injection, schedule: Q01DX011 (ip), vehicle: other, higher = longer survival",113 % of control
Cc1c(N)nc(C(CC(N)=O)NCC(N)C(N)=O)nc1C(=O)NC(C(=O)NC(C)C(O)C(C)C(=O)NC(C(=O)NCCc1nc(-c2nc(C(=O)NCCCNCCCCN)cs2)cs1)C(C)O)C(OC1OC(CO)C(O)C(O)C1OC1OC(CO)C(O)C(OC(N)=O)C1O)c1cnc[nH]1 (stereo not given),T/C,"endpoint: median survival time, dose: 3.9 mg/kg/injection, schedule: Q01DX011 (ip), vehicle: saline, higher = longer survival",120 % of control
same,T/C,"endpoint: median survival time, dose: 10.8 mg/kg/injection, schedule: Q01DX011 (ip), vehicle: saline, higher = longer survival",150 % of control
same,T/C,"endpoint: median survival time, dose: 18.0 mg/kg/injection, schedule: Q01DX011 (ip), vehicle: saline, higher = longer survival",152 % of control
CC(=O)n1cc(F)c(=O)[nH]c1=O,T/C,"endpoint: median survival time, dose: 6.0 mg/kg/injection, schedule: Q01DX011 (ip), vehicle: saline, higher = longer survival",98 % of control
same,T/C,"endpoint: median survival time, dose: 12.0 mg/kg/injection, schedule: Q01DX011 (ip), vehicle: saline, higher = longer survival",111 % of control
same,T/C,"endpoint: median survival time, dose: 24.0 mg/kg/injection, schedule: Q01DX011 (ip), vehicle: saline, higher = longer survival",109 % of control
OC(C1CO1)C(O)C1CO1 (stereo not given),T/C,"endpoint: median survival time, dose: 1.0 mg/kg/injection, schedule: Q01DX011 (ip), vehicle: saline, higher = longer survival",110 % of control
same,T/C,"endpoint: median survival time, dose: 2.0 mg/kg/injection, schedule: Q01DX011 (ip), vehicle: saline, higher = longer survival",108 % of control
same,T/C,"endpoint: median survival time, dose: 3.0 mg/kg/injection, schedule: Q01DX011 (ip), vehicle: saline, higher = longer survival",114 % of control
CCCCCCC(=O)O[C@H]1CC[C@H]2[C@@H]3CCC4=CC(=O)CC[C@]4(C)[C@H]3CC[C@]12C,T/C,"endpoint: median survival time, dose: 20.0 mg/kg/injection, schedule: Q01DX009 (ip), vehicle: Klucel (hydroxypropylcellulose) (HPC), higher = longer survival",94 % of control
same,T/C,"endpoint: median survival time, dose: 40.0 mg/kg/injection, schedule: Q01DX009 (ip), vehicle: Klucel (hydroxypropylcellulose) (HPC), higher = longer survival",90 % of control
same,T/C,"endpoint: median survival time, dose: 80.0 mg/kg/injection, schedule: Q01DX009 (ip), vehicle: Klucel (hydroxypropylcellulose) (HPC), higher = longer survival",91 % of control
same,T/C,"endpoint: median survival time, dose: 160.0 mg/kg/injection, schedule: Q01DX009 (ip), vehicle: Klucel (hydroxypropylcellulose) (HPC), higher = longer survival",110 % of control
FC(F)(F)c1ccc(-c2ccc(OCCN3CCCC3)cc2)cc1,T/C,"endpoint: mean tumor weight, dose: 3.13 mg/kg/injection, schedule: Q01DX011 (ip), vehicle: saline, higher = larger tumour",57 % of control
same,T/C,"endpoint: mean tumor weight, dose: 6.25 mg/kg/injection, schedule: Q01DX011 (ip), vehicle: saline, higher = larger tumour",62 % of control
same,T/C,"endpoint: median survival time, dose: 3.13 mg/kg/injection, schedule: Q01DX011 (ip), vehicle: saline, higher = longer survival",104 % of control
same,T/C,"endpoint: median survival time, dose: 6.25 mg/kg/injection, schedule: Q01DX011 (ip), vehicle: saline, higher = longer survival",100 % of control
CCCCC(CCC)(CCN)CCCC,T/C,[9],90 % of control
same,T/C,[10],97 % of control
same,T/C,"endpoint: mean tumor weight (est.), dose: 4.0 mg/kg/injection, schedule: Q01DX011 (ip), vehicle: saline with Tween-80, higher = larger tumour",102 % of control
same,T/C,"endpoint: mean tumor weight (est.), dose: 8.0 mg/kg/injection, schedule: Q01DX011 (ip), vehicle: saline with Tween-80, higher = larger tumour",69 % of control
same,T/C,[2],103 % of control
same,T/C,[11],92 % of control
same,T/C,[3],94 % of control
same,T/C,"endpoint: median survival time, dose: 8.0 mg/kg/injection, schedule: Q01DX011 (ip), vehicle: saline with Tween-80, higher = longer survival",92 % of control
COC(=O)C(CSC(c1ccccc1)(c1ccccc1)c1ccccc1)NC(=O)C(CSCc1ccccc1)NC(C)=O (stereo not given) (Ac-Cys(Bn)-Cys(Trt)-OMe; configuration not given here),T/C,"endpoint: median survival time, dose: 8.0 mg/kg/injection, schedule: Q01DX009 (ip), vehicle: Klucel (hydroxypropylcellulose) (HPC), higher = longer survival",165 % of control
same,T/C,[7],121 % of control
same,T/C,[8],121 % of control
Cc1n(Cc2ccccc2)c2c([n+]1C)C(=O)c1ccccc1C2=O,T/C,"endpoint: mean tumor weight (est.), dose: 0.13 mg/kg/injection, schedule: Q01DX011 (ip), vehicle: saline with Tween-80, higher = larger tumour",48 % of control
same,T/C,"endpoint: mean tumor weight (est.), dose: 0.25 mg/kg/injection, schedule: Q01DX011 (ip), vehicle: saline with Tween-80, higher = larger tumour",50 % of control
same,T/C,"endpoint: mean tumor weight (est.), dose: 0.5 mg/kg/injection, schedule: Q01DX011 (ip), vehicle: saline with Tween-80, higher = larger tumour",31 % of control
same,T/C,[9],36 % of control
same,T/C,[10],43 % of control
same,T/C,"endpoint: median survival time, dose: 0.13 mg/kg/injection, schedule: Q01DX011 (ip), vehicle: saline with Tween-80, higher = longer survival",110 % of control
same,T/C,"endpoint: median survival time, dose: 0.25 mg/kg/injection, schedule: Q01DX011 (ip), vehicle: saline with Tween-80, higher = longer survival",100 % of control
same,T/C,[1],106 % of control
same,T/C,[2],89 % of control
same,T/C,[11],89 % of control
